The numbers were not newly measured in patent US9775828B2, “Pharmaceutical composition with increased solubility by using saccharin” (University-Industry Foundation, Yonsei University, priority 2014, dated 2017), which cites them from elsewhere.

For this data set the following is noted: when administered to the oral cavity and the nasal cavity.

Take `CN(C)CCc1c[nH]c2ccc(C[C@H]3COC(=O)N3)cc12` [Zolmitriptan, (S)-4-{{3-[2-(dimethylaminoethyl)]-1H-indol-5-1}methyl}-2-oxazolidinone]: the bioavailability entry is recorded as “about 40%”.
